# Results as given in patent US9932300B2, “N,N′-diarylurea compounds and N,N′-diarylthiourea compounds as inhibitors of translation initiation” (President and Fellows of Harvard College, priority 2009, dated 2018).
# Several values for one entry are separate records, joined by “and”; a condition that tells them apart may be missing. Identical values can stand only once.
# Tested on: eIF2-GTP-Met-tRNAi ternary complex
# Experiment: Ternary complex assay (dual luciferase, firefly/renilla ratio) in stable KLN-tTA/pBISA-DL(ATF-4) cells; HTS and hit confirmation
# Format: cell-based, mouse
# Parameters: Activity 10 uM / Activity 2.5 uM / Activity 5 uM: unit not given here
# Settings: confirmed hits of the screen (Table 5); for Activity 2.5 uM: compound at 2.5 uM; for Activity 10 uM: compound at 10 uM
SMILES,Activity 2.5 uM,Activity 10 uM
COc1ccccc1NC(=S)N/N=C\c1cc(N=Nc2ccccc2)cc(OC)c1O [Compound 621792],1.27,3.75
COc1cc(N=Nc2ccccc2)cc(/C=N/NC(=S)Nc2ccccc2)c1[O-].COc1cc(N=Nc2ccccc2)cc(/C=N/NC(=S)Nc2ccccc2)c1[O-].[Cu+2] [Compound 621794],9.24,6.6
CSC(=Nc1ccccc1)/N=C(\SCc1ccccc1)N(C)C.I [Compound 622579],,6.29 and 10.08
CN(C)C1=NC2=S(SC(Nc3ccccc3)=N2)S1 (centres unmarked) [Compound 622683],2.84,3.82
BrC(Br)=C1C(=C(Br)Br)C(Br)C1Br (centres unmarked) [Compound 624851],12.65,
CC(=O)[O-].[O-]c1c(Cl)cc(Cl)cc1/C=N/Nc1ccccn1.[Zn+2] [Compound 625863],3.75,3.72
COc1ccc2c(c1)CCc1c(CO)c(COC(=O)NC(C)C)n(C)c1-2 [Compound 627459],1.68,7.21
CCC[CH2][Sn]1([CH2]CCC)[O]c2ccccc2NCC[N]1c1ccccc1O [Compound 628577],1.45,3.06
Oc1ccccc1[N]1CCNc2ccccc2[O][Sn]1([c]1ccccc1)[c]1ccccc1 [Compound 628578],3.53,
C=[CH][Sn]([CH]=C)([S]c1cccc2cccnc12)[S]c1cccc2cccnc12 [Compound 628594],3.94,
COc1cc[c]([Hg][n+]2c[nH]c3[nH]cnc(=S)c32)cc1 [Compound 631943],6.31,
Nc1nc(=S)c2c(nc[n]2[Hg][c]2ccc([N+](=O)[O-])cc2)[nH]1 [Compound 631945],0.76,5.72
Cc1cc[c]([Hg][S]C(=S)NNc2ccccc2)cc1 [Compound 631946],13.13,
COc1ccc(/C=N/Nc2nc(-c3cc4oc(=O)n(C)c4cc3Cl)cs2)cc1OC [Compound 632134],1.26,3.5
[Cl][Ni][Cl].c1ccc(P(CCP(CCP(c2ccccc2)c2ccccc2)CCP(c2ccccc2)c2ccccc2)c2ccccc2)cc1 [Compound 633334],4.12,28.14
F[P-](F)(F)(F)(F)F.[C-]#[O+].[C-]#[O+].[CH]1[CH][CH][CH][CH]1.[Mo].c1ccc(P(CC[As](c2ccccc2)c2ccccc2)CC[As](c2ccccc2)c2ccccc2)cc1 [Compound 633346],8.05,11.64
F[C-](F)C(F)(F)C(F)(F)C(F)(F)C(F)(F)C(F)(F)C(F)(F)F.[CH]1[CH][CH][CH][CH]1.[Co+][I].c1ccc(P(CCP(c2ccccc2)c2ccccc2)c2ccccc2)cc1 [Compound 633992],13.09,
C(=C\P(c1ccccc1)c1ccccc1)/P(c1ccccc1)c1ccccc1.F[C-](F)C(F)(F)C(F)(F)F.F[P-](F)(F)(F)(F)F.[CH]1[CH][CH][CH][CH]1.[Co+2] [Compound 633995],14.38,11.56
F[C-](C(F)(F)F)C(F)(F)F.[CH]1[CH][CH][CH][CH]1.[Co+][I].c1ccc(P(CCP(c2ccccc2)c2ccccc2)c2ccccc2)cc1 [Compound 633997],17.11,12.56
F[C-](F)F.[C-]#[O+].[CH]1[CH][CH][CH][CH]1.[Mo].c1ccc(P(CCP(c2ccccc2)c2ccccc2)c2ccccc2)cc1 [Compound 634000],1.1,12.96

SMILES,Activity 2.5 uM,Activity 10 uM
F[C-](C(F)(F)F)C(F)(F)F.F[P-](F)(F)(F)(F)F.[CH]1[CH][CH][CH][CH]1.[Co+2].c1ccc(P(CCP(c2ccccc2)c2ccccc2)c2ccccc2)cc1 [Compound 634014],11.17,12.92
C[Si](C)(C)c1ccc(CC2(Cc3ccc([Si](C)(C)C)cc3)CCNC2)cc1 [Compound 634157],0.8,3.99
F[P-](F)(F)(F)(F)F.[Cl][Co+].c1ccc(P(CCP(CCP(c2ccccc2)c2ccccc2)CCP(c2ccccc2)c2ccccc2)c2ccccc2)cc1 [Compound 634838],13.01,30.9
C[C-]=O.[C-]#[O+].[C-]#[O+].[Mn].c1ccc(P(CCP(c2ccccc2)c2ccccc2)CCP(c2ccccc2)c2ccccc2)cc1 [Compound 634842],1.71,8.37
c1ccc(P(CC[As](c2ccccc2)c2ccccc2)CC[As](c2ccccc2)c2ccccc2)cc1 [Compound 635022],0.96,4.8
[Pt].c1ccc(P(CCP(CCP(c2ccccc2)c2ccccc2)CCP(c2ccccc2)c2ccccc2)c2ccccc2)cc1 [Compound 635030],1.68,71.33
[C-]#[O+].[C-]#[O+].[C-]#[O+].[C-]#[O+].[C-]#[O+].[CH]1[CH][CH][CH][CH]1.[CH]1[CH][CH][CH][CH]1.[Mo].[Mo].c1ccc(P(CCP(c2ccccc2)c2ccccc2)c2ccccc2)cc1 [Compound 635072],1.59,5.58
CCOC(=O)/C(=C\c1ccc(N(C)C)cc1)[Se]c1ccccc1 [Compound 638113],1.87,3.17
C/C(=N/O)c1ccc2c(c1)C(=NO)c1cc(/C(C)=N/O)ccc1-2 [Compound 642485],1.93,3.59
CCOC(=O)C(C(=O)OCC)c1ccc([N+](=O)[O-])o1 [Compound 643139],,7.511
COc1ccc(C2=NN(C(C)=O)c3nc4ccccc4nc3O2)cc1 [Compound 643713],2.72,4.87
CC1=NN(c2ccccc2)C(=O)C1=C1SCCCS1 [Compound 643762],1.99,3.47
CCC[CH2][Sn]([CH2]CCC)([CH2]CCC)[O]c1cccccc1=O [Compound 644907],4.97,
Nc1nc2c(N)cc(C(F)(F)F)cc2nc1-c1ccccc1 [Compound 645170],3,5.1
CCCCCCN(CCCCCC)C(=S)N/N=C(\C)c1ccccn1 [Compound 647131],1.96,17.42
CC(=O)Nc1ccc(C(O)/C(=N/N)c2nc3ccc(Cl)cc3[nH]c2=O)cc1 (centres unmarked) [Compound 647590],2.31,3.22
CCCN(CCC)c1c([N+](=O)[O-])cc(S(N)(=O)=O)cc1[N+](=O)[O-] [Compound 648479],2.55,3.37
Cc1ccc(C2C(Cl)C(=O)N2n2cnc3ccccc3c2=O)cc1 (centres unmarked) [Compound 650027],4.2,4.42
COc1ccc(/C=C(\C2=NC(=O)CS2)c2nc3ccccc3[nH]2)cc1 [Compound 652047],1.15,3.51
COc1ccc2c3ccc4c(c3n(C)c2c1)C(=O)C=CC4=O [Compound 652257],3.09,8.74

SMILES,Activity 2.5 uM,Activity 10 uM
O=c1c([Se]c2coc3ccccc3c2=O)coc2ccccc12 [Compound 652531],0.71,12.9
O=[N+]([O-])[O-].O=[N+]([O-])[O-].[Au].[Au].c1ccc([P-]c2ccccc2)cc1.c1ccc([P-]c2ccccc2)cc1 [Compound 652594],1.46,14.89
O=C1/C(=C/c2ccc(O)c(O)c2)CCC/C1=C\c1ccc(O)c(O)c1 [Compound 652890],2.23,7.57
COc1ccc(-c2nnc(-c3nsc4ccccc34)o2)cc1 [Compound 652917],2.33,3.31
COc1ccc(Nc2nnc(-c3nsc4ccccc34)s2)cc1 [Compound 652924],1.78,3.58
CCN(CC)CCCNc1ncc(C)c2c1c1ccc3c(O)cccc3c1n2C [Compound 653438],0.755,12.32
CCSc1nnc(-c2ccccc2)nc1Cc1ccc(OC)cc1 [Compound 655141],2.18,3.91
O=C1C(c2ccc([N+](=O)[O-])cc2)=C(Cl)C(=O)c2c(O)cccc21 [Compound 656075],2.33,7.97
O=C1C(Cl)=C(c2ccc([N+](=O)[O-])cc2)C(=O)c2c(O)cccc21 [Compound 656076],4.6,17.27
CCN(CC)Cc1cc(Nc2c3ccccc3nc3c2[nH]c2ccccc23)cc(CN(CC)CC)c1O.Cl [Compound 656711],0.59,6.66
Cc1ccc(C2=Nc3cccc4cccc(c34)N2)cc1 [Compound 657189],2.65,3.16
CC(=O)C1C(=O)C(=O)N(c2ccc([N+](=O)[O-])cc2)C1=O.[Na+] (centres unmarked) [Compound 657424],1.17,3.36
COc1ccc(-c2nc(Nc3ccccc3)sc2Cc2sc(Nc3ccccc3)nc2-c2ccc(OC)cc2)cc1 [Compound 658163],2.63,4.46
CCN1CCNc2c3cc(OC)ccc3nc3c([N+](=O)[O-])ccc1c23 [Compound 658354],0.2379,6.609
COc1ccc2nc3c([N+](=O)[O-])ccc4c3c(c2c1)NCCN4CCO [Compound 658355],0.5,8.48
COc1ccc2c(c1)c1c3c(ccc4ncn2c43)N(CCO)CCN=1 [Compound 658358],0.4,20.35
Cl.Cn1c(N)nc(-c2ccc(Cl)cc2)c1SSc1c(-c2ccc(Cl)cc2)nc(N)n1C [Compound 658830],0.48,4.21
CCn1c(O)c(C=Nc2ccccc2)s/c1=N/Nc1nc(C)cs1 [Compound 658916],2.047,3.18
